Reference: patent US20230117470A1, “SUBSTITUTED PYRAZOLE COMPOUNDS AS TOLL RECEPTOR INHIBITORS” (BRISTOL-MYERS SQUIBB COMPANY, priority 2019, published 2023)

Legend:
Assay type in all cases: cell-based
human TLR8 = molecular target: T1, human TLR8 (Homo sapiens, UniProt Q9NR97); experiment: TLR8 inhibition reporter assay (HEK-Blue cells, SEAP reporter, R848 stimulation); conditions: HEK-Blue cells overexpressing human TLR8, SEAP reporter, R848 15.9 μM
T1 construct: host or cells: HEK-Blue cells
T1 sequence (Q9NR97 27-1041): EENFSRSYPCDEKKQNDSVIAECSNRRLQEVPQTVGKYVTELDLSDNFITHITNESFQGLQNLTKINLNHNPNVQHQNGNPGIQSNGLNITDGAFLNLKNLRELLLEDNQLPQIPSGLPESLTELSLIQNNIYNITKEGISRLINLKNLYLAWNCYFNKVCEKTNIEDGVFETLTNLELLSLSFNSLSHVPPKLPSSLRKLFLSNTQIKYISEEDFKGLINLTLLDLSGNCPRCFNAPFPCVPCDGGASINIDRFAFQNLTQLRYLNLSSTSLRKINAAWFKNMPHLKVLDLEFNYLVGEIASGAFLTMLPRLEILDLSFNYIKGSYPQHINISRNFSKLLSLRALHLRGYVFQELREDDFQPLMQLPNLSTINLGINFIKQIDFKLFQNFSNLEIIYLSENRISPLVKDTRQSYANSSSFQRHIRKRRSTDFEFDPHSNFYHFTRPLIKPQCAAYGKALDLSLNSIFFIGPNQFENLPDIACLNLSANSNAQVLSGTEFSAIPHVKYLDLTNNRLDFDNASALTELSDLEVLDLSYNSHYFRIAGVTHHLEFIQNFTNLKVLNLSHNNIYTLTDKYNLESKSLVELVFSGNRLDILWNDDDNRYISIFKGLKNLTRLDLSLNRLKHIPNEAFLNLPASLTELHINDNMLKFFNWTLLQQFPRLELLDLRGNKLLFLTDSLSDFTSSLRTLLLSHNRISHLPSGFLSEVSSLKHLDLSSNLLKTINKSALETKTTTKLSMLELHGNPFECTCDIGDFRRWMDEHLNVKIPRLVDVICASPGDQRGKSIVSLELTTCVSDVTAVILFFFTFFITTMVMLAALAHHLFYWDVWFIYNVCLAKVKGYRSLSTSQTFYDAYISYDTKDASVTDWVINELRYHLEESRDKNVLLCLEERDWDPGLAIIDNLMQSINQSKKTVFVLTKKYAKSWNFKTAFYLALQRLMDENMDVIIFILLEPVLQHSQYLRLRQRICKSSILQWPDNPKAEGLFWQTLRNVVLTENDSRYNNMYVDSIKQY
Method in brief: (§1)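 Ligand levels differed by receptor: TLR7 got gardiquimod at 7.5 μM, TLR8 got R848 at 15.9 μM, and TLR9 got ODN2006 at 5 nM, each added after a 30-min room-temperature compound exposure. Incubation lasted 22 h at 37° C before colorimetric SEAP detection.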

human TLR7 = molecular target: T2, human TLR7 (Homo sapiens, UniProt Q9NYK1); experiment: TLR7 inhibition reporter assay (HEK-Blue cells, SEAP reporter, gardiquimod stimulation); conditions: HEK-Blue cells overexpressing human TLR7, SEAP reporter, gardiquimod 7.5 μM
T2 construct: host or cells: HEK-Blue cells
T2 sequence (Q9NYK1 27-1049): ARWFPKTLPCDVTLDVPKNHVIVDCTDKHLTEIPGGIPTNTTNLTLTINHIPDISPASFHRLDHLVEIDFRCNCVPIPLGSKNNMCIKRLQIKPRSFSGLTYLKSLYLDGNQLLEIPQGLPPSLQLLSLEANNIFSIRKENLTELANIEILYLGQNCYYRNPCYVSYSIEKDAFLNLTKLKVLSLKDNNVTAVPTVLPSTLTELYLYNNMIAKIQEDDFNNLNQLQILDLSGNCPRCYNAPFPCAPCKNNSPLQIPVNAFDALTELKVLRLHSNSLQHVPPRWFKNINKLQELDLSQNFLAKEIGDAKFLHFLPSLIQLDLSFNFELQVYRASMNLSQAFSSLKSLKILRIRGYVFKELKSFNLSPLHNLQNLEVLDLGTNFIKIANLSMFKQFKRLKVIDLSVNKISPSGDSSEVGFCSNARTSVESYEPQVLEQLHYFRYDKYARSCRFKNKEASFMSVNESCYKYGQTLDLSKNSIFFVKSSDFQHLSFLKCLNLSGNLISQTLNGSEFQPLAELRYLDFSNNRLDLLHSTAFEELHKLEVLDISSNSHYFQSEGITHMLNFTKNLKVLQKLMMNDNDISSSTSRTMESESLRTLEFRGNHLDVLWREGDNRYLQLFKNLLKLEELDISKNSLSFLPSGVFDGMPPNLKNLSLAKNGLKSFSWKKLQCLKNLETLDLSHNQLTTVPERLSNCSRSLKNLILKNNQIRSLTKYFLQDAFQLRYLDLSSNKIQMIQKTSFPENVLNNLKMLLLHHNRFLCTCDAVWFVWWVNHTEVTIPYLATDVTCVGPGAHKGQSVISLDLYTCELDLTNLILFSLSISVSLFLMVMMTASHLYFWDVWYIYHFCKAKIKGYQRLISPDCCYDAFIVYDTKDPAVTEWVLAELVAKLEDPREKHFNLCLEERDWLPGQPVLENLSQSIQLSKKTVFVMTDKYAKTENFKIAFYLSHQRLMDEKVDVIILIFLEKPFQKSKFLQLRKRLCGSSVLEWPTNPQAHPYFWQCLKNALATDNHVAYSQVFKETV
Method in brief: as §1

human TLR9 = molecular target: T3, human TLR9 (Homo sapiens, UniProt Q9NR96); experiment: TLR9 inhibition reporter assay (HEK-Blue cells, SEAP reporter, ODN2006 stimulation); conditions: HEK-Blue cells overexpressing human TLR9, SEAP reporter, ODN2006 5 nM
T3 construct: host or cells: HEK-Blue cells
T3 sequence (Q9NR96 26-1032): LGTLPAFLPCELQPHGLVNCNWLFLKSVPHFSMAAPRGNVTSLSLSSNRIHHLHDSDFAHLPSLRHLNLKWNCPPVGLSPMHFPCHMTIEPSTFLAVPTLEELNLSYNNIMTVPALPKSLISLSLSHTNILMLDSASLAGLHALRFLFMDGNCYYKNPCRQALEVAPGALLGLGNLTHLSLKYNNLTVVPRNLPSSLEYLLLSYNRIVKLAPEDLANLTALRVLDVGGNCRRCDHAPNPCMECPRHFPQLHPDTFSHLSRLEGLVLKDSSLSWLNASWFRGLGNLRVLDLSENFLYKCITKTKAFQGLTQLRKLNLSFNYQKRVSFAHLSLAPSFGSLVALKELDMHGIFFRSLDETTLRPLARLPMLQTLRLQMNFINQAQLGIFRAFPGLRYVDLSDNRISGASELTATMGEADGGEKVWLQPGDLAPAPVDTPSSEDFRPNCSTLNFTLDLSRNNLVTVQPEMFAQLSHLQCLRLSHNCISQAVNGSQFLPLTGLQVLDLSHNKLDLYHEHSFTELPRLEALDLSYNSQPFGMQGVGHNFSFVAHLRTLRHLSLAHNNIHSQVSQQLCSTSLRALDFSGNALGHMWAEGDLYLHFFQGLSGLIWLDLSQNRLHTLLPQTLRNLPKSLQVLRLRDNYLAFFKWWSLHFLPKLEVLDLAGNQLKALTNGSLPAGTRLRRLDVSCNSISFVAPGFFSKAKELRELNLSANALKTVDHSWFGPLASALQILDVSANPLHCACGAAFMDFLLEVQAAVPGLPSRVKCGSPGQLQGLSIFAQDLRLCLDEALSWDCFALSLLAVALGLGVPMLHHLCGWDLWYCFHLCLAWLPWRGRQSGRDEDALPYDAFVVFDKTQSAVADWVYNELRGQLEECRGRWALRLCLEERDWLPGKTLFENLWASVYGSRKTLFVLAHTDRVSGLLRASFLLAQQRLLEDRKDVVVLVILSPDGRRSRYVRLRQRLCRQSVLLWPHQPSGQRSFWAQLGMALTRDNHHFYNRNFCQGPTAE
Method in brief: as §1

SMILES	IC50 (human TLR8) [nM]	IC50 (human TLR7) [nM]	IC50 (human TLR9) [nM]
Cc1cc(-c2[nH]nc(-c3ccc(N4CC(N(C)C)C4)cc3)c2C(C)C)cn2ncnc12 [Example 405, 1-(4-(4-isopropyl-5-(8-methyl-[1,2,4]triazolo[1,5-a]pyridin-6-yl)-1H-pyrazol-3-yl)phenyl)-N,N-dimethylazetidin-3-amine]	215	77.5	37700
Cc1cc(-c2[nH]nc(-c3ncc4c(n3)CCNC4)c2C(C)C)cn2ncnc12 [Example 222]	1.94	0.75	30400
CC(=O)N1CCc2nc(-c3n[nH]c(-c4cc(C)c5ncnn5c4)c3C(C)C)sc2C1 [Example 276]	> 3130	975	> 50000
CCC(CC)CN[C@H]1CC[C@H](NC(=O)c2n[nH]c(-c3cc(C)c4ncnn4c3)c2C(C)C)CC1 [Example 110]	0.93	2.21	5780
Cc1cc(-c2[nH]nc(-c3cnc(N)nc3)c2C(C)C)cn2ncnc12 [Example 228]	1.46	2.18	8860
Cc1cc(-c2[nH]nc(C(=O)N[C@@H]3CCNC3)c2C(C)C)cn2ncnc12 [Example 50]	2.74	1.27	17300
CCCN1CCC(c2cnc(-c3n[nH]c(-c4cc(OC)c5ncnn5c4)c3C(C)C)cn2)CC1 [Example 383]	3.51	17.5	47000
Cc1cc(-c2[nH]nc(C(=O)NC3CCN(C4CCOCC4)CC3)c2CC(F)(F)F)cn2ncnc12 [Example 201]	4.21	6.66	9250
Cc1cc(-c2[nH]nc(C(=O)N3CCNCC3)c2C(C)C)cn2ncnc12 [Example 57]	1.34	4.24	23100
COc1cc(-c2[nH]nc(-c3ccc(C4CN(CC(C)(C)O)C4)cc3)c2C(C)C)cn2ncnc12 [Example 337]	7.61	8.27	42400
CCN1CC(C(=O)N(C)C2CCC(c3n[nH]c(-c4cc(C)c5ncnn5c4)c3C(C)C)CC2)C1 (single isomer, unassigned) [Example 305]	70	311	> 50000
Cc1cc(-c2[nH]nc(C(=O)NC3CCN(C(C)C)CC3)c2C(C)C)cn(C)c1=O [Example 39]	25.5	8.31	3560
COc1cc(-c2[nH]nc(-c3ccc(C4CCNCC4)cc3)c2C(C)C)cn2ncnc12 [compound 308]	0.09	0.18	15800
Cc1cc(-c2[nH]nc(C(=O)NCC3CCNCC3)c2C(C)C)cn2ncnc12 [Example 45]	19.5	1.84	45400
COc1cc(-c2[nH]nc(-c3ccc(C4CCN(C)CC4)cc3)c2C(C)C)cn2ncnc12 [Example 314]	18.5	13.9	> 50000
COCCN1CCc2nc(-c3n[nH]c(-c4cc(C)c5ncnn5c4)c3C(C)C)sc2C1 [Example 266]	60.2	119	> 50000
Cc1cc(-c2[nH]nc(C(=O)N[C@H]3CC[C@@H](NC4COC4)CC3)c2C(C)C)cn2ncnc12 [Example 86]	0.7	1.34	6420
Cc1cc(-c2[nH]nc(C3CCC(N(C)C(=O)C4CN(C(C)C)C4)CC3)c2C(C)C)cn2ncnc12 (single isomer, unassigned) [Example 303]	0.93	7.99	26400
Cc1cc(-c2[nH]nc(C(=O)N[C@H]3CC[C@H](NCc4cccnc4)CC3)c2C(C)C)cn2ncnc12 [Example 112]	28.3	11.4	> 50000
Cc1cc(-c2[nH]nc(C(=O)N[C@H]3CC[C@@H](NC4CCOC(C)(C)C4)CC3)c2C(C)C)cn2ncnc12 (stereo partly drawn) [Example 97]	41.9	2.42	5490
